Reference: ChEMBL document CHEMBL1201862, “PubChem BioAssay data set” (2004)
Values joined by “and” are separate entries in the source; they are usually repeats but may differ in a detail not shown here. Equal entries are not always repeated.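 A five-concentration, 48-hour dose response in 96-well plates underlies each endpoint, interpolated linearly between surrounding concentrations. GI50 is the concentration that inhibits growth by half.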 Active and inactive are the calls of the source. Rule as the data show it: active = GI50 up to about 1.1 µM and inactive = higher.

Tests used:
Assay in all cases: inhibition of tumour cell growth, NCI panel, 48 h
SF-268 = system: SF-268
NCI-H522 = system: NCI-H522
786-0 = system: 786-0
HT-29 = system: HT-29
DU-145 = system: DU-145
HCC 2998 = system: HCC 2998
RXF 393 = system: RXF 393
NCI-H226 = system: NCI-H226
T47D = system: T47D
Malme-3M = system: Malme-3M
SR = system: SR
TK-10 = system: TK-10
MDA-N = system: MDA-N
SNB-19 = system: SNB-19
SN12C = system: SN12C
NCI-H460 = system: NCI-H460
CCRF-CEM = system: CCRF-CEM
PC-3 = system: PC-3
HCT-15 = system: HCT-15
MCF7 = system: MCF7

SMILES | GI50 (SF-268) | GI50 (NCI-H522) | GI50 (786-0) | GI50 (HT-29) | GI50 (DU-145) | GI50 (HCC 2998) | GI50 (RXF 393) | GI50 (NCI-H226) | GI50 (T47D) | GI50 (Malme-3M) | GI50 (SR) | GI50 (TK-10) | GI50 (MDA-N) | GI50 (SNB-19) | GI50 (SN12C) | GI50 (NCI-H460) | GI50 (CCRF-CEM) | GI50 (PC-3) | GI50 (HCT-15) [µM] | GI50 (MCF7)
CSCSSC | > 100 µM (inactive) | > 100 µM (inactive) | > 100 µM (inactive) | > 100 µM (inactive) | > 100 µM (inactive) | > 100 µM (inactive) | > 100 µM (inactive) | > 100 µM (inactive) | > 100 µM (inactive) | 77.1 µM (inactive) | 30.7 µM (inactive) | > 100 µM (inactive) | > 93.3 µM (inactive) | > 100 µM (inactive) | > 100 µM (inactive) | > 100 µM (inactive) | 40.6 µM (inactive) | > 80 µM (inactive) |  | 
Cc1ccccc1/N=N/c1cc(C)c(/N=N/c2c(O)ccc3ccccc23)cc1C | > 100 µM (inactive) | > 100 µM (inactive) | > 100 µM (inactive) | > 100 µM (inactive) | > 100 µM (inactive) |  | > 100 µM (inactive) | > 100 µM (inactive) | > 100 µM (inactive) | > 100 µM (inactive) |  | > 100 µM (inactive) | > 100 µM (inactive) | > 100 µM (inactive) | > 100 µM (inactive) |  | > 100 µM (inactive) | > 100 µM (inactive) | > 100 | 
C#CCN(CC#C)C(=O)C(=O)c1c[nH]c2ccc(OC)cc12 | 29.5 µM (inactive) |  | 16.6 µM (inactive) | 12.5 µM (inactive) | 39.1 µM (inactive) | 16.9 µM (inactive) | 16.3 µM (inactive) | 18.2 µM (inactive) | 24.2 µM (inactive) | 17.2 µM (inactive) | 11.1 µM (inactive) | 14.5 µM (inactive) |  | 16.1 µM (inactive) | 15.3 µM (inactive) | 15 µM (inactive) | 19.7 µM (inactive) |  | 15.5 | 18.6 µM (inactive)
CCCCCN(CCCCC)CC(C)(C)C(O)c1ccc(OC)c2ccccc12 (centres undefined) | 13.3 µM (inactive) | 6.79 µM (inactive) | 12.4 µM (inactive) | 2.01 µM (inactive) | 12.5 µM (inactive) | 3.52 µM (inactive) | 7.78 µM (inactive) | 16.9 µM (inactive) | 4.56 µM (inactive) | 14.1 µM (inactive) | 2.07 µM (inactive) | 7.98 µM (inactive) |  | 10.7 µM (inactive) | 11.5 µM (inactive) | 3.4 µM (inactive) | 27.9 µM (inactive) | 10.9 µM (inactive) | 5.81 | 5.13 µM (inactive)
Cc1ccc(S(=O)(=O)N2CCCN(S(=O)(=O)c3ccc(C)cc3)CCN(S(=O)(=O)c3ccc(C)cc3)CCCSCC2)cc1 | > 100 µM (inactive) |  | 45.2 µM (inactive) | > 100 µM (inactive) | > 100 µM (inactive) | > 100 µM (inactive) | > 100 µM (inactive) | > 100 µM (inactive) | > 100 µM (inactive) |  |  |  | > 100 µM (inactive) | > 100 µM (inactive) | > 100 µM (inactive) | > 100 µM (inactive) | > 100 µM (inactive) |  |  | > 100 µM (inactive)
CC(=O)OCC1OC(Sc2nc(-c3ccc(C)cc3)c(C#N)c(=O)n2C2OC(COC(C)=O)C(OC(C)=O)C(OC(C)=O)C2OC(C)=O)C(OC(C)=O)C(OC(C)=O)C1OC(C)=O (centres undefined) | > 100 µM (inactive) | > 100 µM (inactive) | > 100 µM (inactive) | > 100 µM (inactive) | > 100 µM (inactive) |  | > 100 µM (inactive) | > 100 µM (inactive) | > 100 µM (inactive) |  | > 100 µM (inactive) | > 100 µM (inactive) |  | > 100 µM (inactive) | > 100 µM (inactive) | > 100 µM (inactive) | 4.83 µM (inactive) and 6.76 µM (inactive) | > 100 µM (inactive) | > 100 | > 100 µM (inactive)
ClCCN(CCCl)c1ccc(/C=N/Nc2ccnc3ccccc23)cc1 | 2.65 µM (inactive) | 1.83 µM (inactive) | 1.78 µM (inactive) | 0.736 µM (active) | 1.8 µM (inactive) | 3.26 µM (inactive) |  | 1.89 µM (inactive) | 1.76 µM (inactive) | 1.49 µM (inactive) |  | 1.52 µM (inactive) |  | 2.33 µM (inactive) | 1.65 µM (inactive) | 2.73 µM (inactive) | 1.49 µM (inactive) | 1.45 µM (inactive) | 1.35 | 3.03 µM (inactive)
O=c1c(Cl)c(Cl)cnn1CCCl | 3.83 µM (inactive) | 0.558 µM (active) | 12.2 µM (inactive) | 2.81 µM (inactive) | 18.7 µM (inactive) | 3.34 µM (inactive) | 2.09 µM (inactive) | 23.2 µM (inactive) | 3.34 µM (inactive) | 2.56 µM (inactive) |  | 15.9 µM (inactive) |  | 7.03 µM (inactive) | 12.9 µM (inactive) | 8.13 µM (inactive) | 1.85 µM (inactive) |  | 2.64 | 
